Measured values: publication PMC12704249, “New Mannich-type arylidenerhodanines as potent inhibitors of AChE and BChE: synthesis, biological evaluation, cytotoxicity and molecular modeling” (RSC Advances, 2025)
Like-named read-outs stand apart in the source and are kept apart here.

Assays:
[1] = target: T1, AChE derived from Electrophorus electricus (Electrophorus electricus, UniProt O42275); test: AChE inhibition assay (modified Ellman's colorimetric method, Lineweaver–Burk Ki); assay type: biochemical, Electrophorus electricus (electric eel); conditions: for Ki: 0.1 M Tris–HCl pH 8.0, substrate acetylthiocholine chloride; for Selectivity (BChE/AChE): ratio of BChE Ki to AChE Ki
T1 construct: purchased Sigma-Aldrich (St. Louis, MO, USA)
T1 sequence (O42275 24-633): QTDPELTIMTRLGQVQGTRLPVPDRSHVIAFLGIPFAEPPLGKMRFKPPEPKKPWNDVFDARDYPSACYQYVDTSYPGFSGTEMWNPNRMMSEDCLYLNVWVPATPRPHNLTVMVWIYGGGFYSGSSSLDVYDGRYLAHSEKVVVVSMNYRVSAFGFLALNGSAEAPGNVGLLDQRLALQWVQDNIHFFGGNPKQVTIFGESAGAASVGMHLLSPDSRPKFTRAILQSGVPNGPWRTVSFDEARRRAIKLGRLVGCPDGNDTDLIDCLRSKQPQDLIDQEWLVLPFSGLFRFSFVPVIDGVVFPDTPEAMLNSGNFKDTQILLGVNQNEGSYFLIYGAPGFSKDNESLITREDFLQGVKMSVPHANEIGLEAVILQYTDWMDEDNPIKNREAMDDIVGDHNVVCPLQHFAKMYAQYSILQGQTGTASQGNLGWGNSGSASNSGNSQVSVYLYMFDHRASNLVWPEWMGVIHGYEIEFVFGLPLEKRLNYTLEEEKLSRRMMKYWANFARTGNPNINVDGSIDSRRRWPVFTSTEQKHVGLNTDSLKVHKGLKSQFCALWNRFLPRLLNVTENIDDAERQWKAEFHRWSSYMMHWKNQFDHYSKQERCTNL
From the text: Enzyme kinetic parameters were derived by measuring initial velocities at varying substrate concentrations both in the presence and absence of inhibitors. The Ki values were obtained through Lineweaver–Burk double-reciprocal plots, where 1/V was plotted against 1/[S], allowing for graphical estimation based on the shift in intercepts.[47,48]

[2] = target: T2, BChE isolated from equine serum (Equus caballus, UniProt P81908); test: BChE inhibition assay (modified Ellman's colorimetric method, Lineweaver–Burk Ki); assay type: biochemical; conditions: for Ki: 0.1 M Tris–HCl pH 8.0, substrate butyrylthiocholine iodide; for BChE Ki, fold more inhibitory than tacrine: relative to tacrine Ki; for BChE Ki, fold more inhibitory than donepezil: relative to donepezil Ki
T2 construct: BChE isolated from equine serum (≥10 U per mg protein); purchased Sigma-Aldrich (St. Louis, MO, USA); host or cells: equine serum
T2 sequence (P81908 whole entry): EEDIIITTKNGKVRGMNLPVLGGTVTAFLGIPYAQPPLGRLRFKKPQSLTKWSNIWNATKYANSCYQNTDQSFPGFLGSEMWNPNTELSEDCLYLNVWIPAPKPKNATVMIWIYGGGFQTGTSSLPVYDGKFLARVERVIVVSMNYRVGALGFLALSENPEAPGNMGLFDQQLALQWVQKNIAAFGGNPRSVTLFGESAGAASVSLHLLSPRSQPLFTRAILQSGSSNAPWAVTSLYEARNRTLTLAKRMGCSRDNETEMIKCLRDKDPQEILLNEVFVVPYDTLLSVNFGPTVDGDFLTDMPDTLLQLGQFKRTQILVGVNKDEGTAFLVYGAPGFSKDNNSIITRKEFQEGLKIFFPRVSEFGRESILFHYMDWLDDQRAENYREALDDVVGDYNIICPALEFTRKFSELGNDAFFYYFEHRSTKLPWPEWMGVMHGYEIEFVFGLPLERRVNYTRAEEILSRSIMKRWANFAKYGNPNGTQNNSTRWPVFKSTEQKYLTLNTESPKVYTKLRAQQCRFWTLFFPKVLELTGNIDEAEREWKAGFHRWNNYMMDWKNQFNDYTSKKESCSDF
Procedure: AChE derived from Electrophorus electricus (electric eel; specific activity: 200–1000 U per mg protein) and BChE isolated from equine serum (≥10 U per mg protein) were obtained from Sigma-Aldrich (St. Louis, MO, USA). Acetylthiocholine chloride (ATChCl) and butyrylthiocholine iodide (BTChI) were utilized as the respective substrates for AChE and BChE assays. All reagent solutions were freshly prepared in 0.1 M Tris–HCl buffer at pH 8.0. The enzymatic activities were assessed spectrophotometrically following a modified protocol based on Ellman's colorimetric method.[46] […] To determine the inhibition constant (Ki), a range of inhibitor concentrations was tested under steady-state conditions. Enzyme kinetic parameters were derived by measuring initial velocities at varying substrate concentrations both in the presence and absence of inhibitors. The Ki values were obtained through Lineweaver–Burk double-reciprocal plots, where 1/V was plotted against 1/[S], allowing for graphical estimation based on the shift in intercepts.[47,48]

HUVEC cell line = test: MTT cell viability assay on HUVEC; assay type: cell-based, human
Procedure: The cell line was cultured in DMEM-F12 medium (Gibco, MD, USA) supplemented with 10% fetal bovine serum (FBS) (Gibco, MD, USA) and 1% penicillin/streptomycin (Gibco, MD, USA) under a 5% CO2 humidified atmosphere at 37 °C.
The MTT proliferation test was conducted to determine the impact of the compounds on cell viability in the HUVEC cell line. The cells were seeded in 96-well plates (1 × 10^4 cells per well) and subsequently allowed to grow for 24 hours. […] Following the treatment duration, MTT solution was added at a final concentration of 0.1 mg mL^−1, and the cells were incubated for 4 hours at 37 °C. Then, the supernatant was discarded, DMSO was added to allow the formazan crystals to dissolve, and the plates were incubated in the dark at room temperature for 30 minutes. The absorbance at 570 nm was determined using a microplate reader (BioTek Instruments, Inc., USA). All cytotoxicity assays were done in three times (three independent experiments). IC50 values are given as mean ± standard deviation (SD). […] The error bars in all the figures show the experimental SD.

AChE = conditions: in Fig. 1, cited from earlier work
BChE = conditions: in Fig. 1, cited from earlier work
[3] = Homo sapiens, HUVEC, 24 h, MTT, 24 hours treatment, mean ± SD, n = 3, read-out: HUVEC IC50

| SMILES | Ki ([1]; Lineweaver–Burk plots) [nM] | Selectivity (BChE/AChE) [1] | Ki ([2]; Lineweaver–Burk plots) [nM] | further results |
| --- | --- | --- | --- | --- |
| C=CCN1C(=O)/C(=C/c2cc(CN3CCOCC3)c(O)c(OC)c2)SC1=S [Compound 1, (Z)-3-Allyl-5-[4-hydroxy-3-methoxy-5-(morpholinomethyl)benzylidene]-2-thioxothiazolidin-4-one] | 57.6 ± 11.6 | 0.93 | 53.6 ± 8.87 | BChE Ki, fold more inhibitory than tacrine [2]: more than 3.16 fold |
| C=CCN1C(=O)/C(=C/c2cc(CN3CCN(C)CC3)c(O)c(OC)c2)SC1=S [Compound 2, (Z)-3-Allyl-5-{4-hydroxy-3-methoxy-5-[(4-methylpiperazin-1-yl)methyl]benzylidene}-2-thioxothiazolidin-4-one] | 46 ± 5.21 | 1.11 | 50.9 ± 10.4 |  |
| C=CCN1C(=O)/C(=C/c2cc(CN3CCN(c4ccccc4)CC3)c(O)c(OC)c2)SC1=S [Compound 3, (Z)-3-Allyl-5-{4-hydroxy-3-methoxy-5-[(4-phenylpiperazin-1-yl)methyl]benzylidene}-2-thioxothiazolidin-4-one] | 62 ± 13.6 | 1.09 | 67.7 ± 11.4 |  |
| C=CCN1C(=O)/C(=C/c2cc(CN3CCN(C(=O)OCC)CC3)c(O)c(OC)c2)SC1=S [Compound 4, (Z)-3-Allyl-5-{4-hydroxy-3-methoxy-5-[(4-ethoxycarbonylpiperazin-1-yl)methyl]benzylidene}-2-thioxothiazolidin-4-one] | 28.7 ± 6.12 | 1.15 | 33 ± 9.21 | IC50 (HUVEC cell line; [3]): 73130 ± 500 nM |
| C=CCN1C(=O)/C(=C/c2cc(CN3CCCC(C)C3)c(O)c(OC)c2)SC1=S (stereo not shown) [Compound 5, (Z)-3-Allyl-5-{4-hydroxy-3-methoxy-5-[(3-methylpiperidin-1-yl)methyl]benzylidene}-2-thioxothiazolidin-4-one] | 95.3 ± 11.2 | 0.93 | 88.7 ± 15.5 |  |
| C=CCN1C(=O)/C(=C/c2cc(CN3CCc4ccccc4C3)c(O)c(OC)c2)SC1=S [Compound 6, (Z)-3-Allyl-5-{3-[(3,4-dihydroisoquinolin-2(1H)-yl)methyl]-4-hydroxy-5-methoxybenzylidene}-2-thioxothiazolidin-4-one] | 13.6 ± 1.43 | 0.77 | 10.4 ± 1.33 | IC50 (HUVEC cell line; Homo sapiens, HUVEC, 24 h, read-out: HUVEC IC50, MTT, 24 hours treatment, mean ± SD, n = 3): 79100 nM; IC50 (HUVEC cell line; MTT, 24 hours treatment, mean ± SD, n = 3, read-out: HUVEC IC50): 79710 ± 520 nM; form of inhibition of BChE ([2]; Lineweaver–Burk plots): competitive; BChE Ki, fold more inhibitory than donepezil [2]: 5.98 fold; BChE Ki, fold more inhibitory than tacrine [2]: 16.24 fold |
| C=CCN1C(=O)/C(=C/c2cc(CN3CCN(c4ncccn4)CC3)c(O)c(OC)c2)SC1=S [Compound 7, (Z)-3-Allyl-5-(4-hydroxy-3-methoxy-5-{[4-(pyrimidin-2-yl)piperazin-1-yl]methyl}benzylidene)-2-thioxothiazolidin-4-one] | 25.4 ± 9.45 | 1.14 | 29 ± 7.54 | IC50 (HUVEC cell line; [3]): 43300 ± 470 nM; BChE Ki, fold more inhibitory than tacrine [2]: 5.85 fold |
| C=CCN1C(=O)/C(=C/c2cc(CN3CCOCC3)c(O)c(OCC)c2)SC1=S [Compound 8, (Z)-3-Allyl-5-[4-hydroxy-3-ethoxy-5-(morpholinomethyl)benzylidene]-2-thioxothiazolidin-4-one] | 85.1 ± 8.45 | 1.42 | 121 ± 12.7 |  |
| C=CCN1C(=O)/C(=C/c2cc(CN3CCN(C(=O)OCC)CC3)c(O)c(OCC)c2)SC1=S [Compound 9, (Z)-3-Allyl-5-{4-hydroxy-3-ethoxy-5-[(4-ethoxycarbonylpiperazin-1-yl)methyl]benzylidene}-2-thioxothiazolidin-4-one] | 31.5 ± 5.15 | 1.29 | 40.5 ± 6.63 |  |
| C=CCN1C(=O)/C(=C/c2cc(CN3CCN(c4ccccc4)CC3)c(O)c(OCC)c2)SC1=S [Compound 10, (Z)-3-Allyl-5-{4-hydroxy-3-ethoxy-5-[(4-phenylpiperazin-1-yl)methyl]benzylidene}-2-thioxothiazolidin-4-one] | 18.6 ± 2.05 | 1.16 | 21.6 ± 5.23 | IC50 (HUVEC cell line; [3]): 47400 ± 670 nM |
| C=CCN1C(=O)/C(=C/c2cc(CN3CCc4ccccc4C3)c(O)c(OCC)c2)SC1=S [Compound 11, (Z)-3-Allyl-5-{3-[(3,4-dihydroisoquinolin-2(1H)-yl)methyl]-4-hydroxy-5-ethoxybenzylidene}-2-thioxothiazolidin-4-one] | 12.7 ± 1.96 |  | 25.1 ± 6.41 | IC50 (HUVEC cell line; [3]): 69140 ± 590 nM; form of inhibition of AChE ([1]; Lineweaver–Burk plots): competitive; BChE Ki, fold more inhibitory than donepezil [2]: > 2.49 fold; BChE Ki, fold more inhibitory than tacrine [2]: over 6.75 fold |
| C=CCN1C(=O)/C(=C/c2cc(Br)c(O)c(CN3CCOCC3)c2)SC1=S [Compound 12, (Z)-3-Allyl-5-[3-bromo-4-hydroxy-5-(morpholinomethyl)benzylidene]-2-thioxothiazolidin-4-one] | 43 ± 8.77 |  | 97.2 ± 17.9 |  |
| C=CCN1C(=O)/C(=C/c2cc(CN3CCOCC3)c(O)c(CN3CCOCC3)c2)SC1=S [Compound 13, (Z)-3-Allyl-5-[4-hydroxy-3,5-bis(morpholinomethyl)benzylidene]-2-thioxothiazolidin-4-one] | 26.5 ± 9.21 |  | 112 ± 23.5 |  |
| O=C(CCN1CCN(Cc2ccc(F)cc2)CC1)n1c2ccccc2c2ccccc21 [III] |  |  |  | IC50 (AChE): 5700 nM |
| c1ccc2cc(-c3nc4ccccn4c3CN3CCOCC3)ccc2c1 [II] |  |  |  | IC50 (BChE): 25.5 nM; IC50 (AChE): 12.6 nM |
| O=C(O)c1ccc(/C=N/n2c(CN3CCN(c4ncccn4)CC3)nc3ccccc3c2=O)c(C(=O)O)c1 [IV] |  |  |  | IC50 (BChE): 8650 nM; IC50 (AChE): 9990 nM |
| O=C(c1ccc2nc(-c3ccc[nH]3)oc2c1)N1CCOCC1 [I] |  |  |  | IC50 (BChE): 99 nM; IC50 (AChE): 57.8 nM |
| CN(C)c1ccc(/C=C2\SC(=S)N(CC(=O)N3CCOCC3)C2=O)cc1 [VII] |  |  |  | IC50 (AChE; rhodanine derivatives): 52300 nM |
| O=C(CN1C(=O)CSC1=S)Nc1ccc([N+](=O)[O-])cc1 [VI] |  |  |  | IC50 (BChE; rhodanine derivatives): 7900 nM; IC50 (AChE; rhodanine derivatives): 30800 nM |
| COc1cc(/C=N\NC(=O)c2ccncc2)cc(CN2CCN(c3ccccc3)CC2)c1O [V] |  |  |  | IC50 (AChE): 230 nM |
